Source: patent US7452865B2, “Antagonistic analogs of GH RH (2003)” (The Administrare's of the Tulane Educational Fund, priority 2004, dated 2008)
Values joined by “and” are separate entries in the source; they are usually repeats but may differ in a detail not shown here. Equal values may be shown once.

Tested on: hGH-RH(1-29)NH2 induced GH release
Experiment: Inhibition of GH release in superfused rat pituitary system
Type: cell-based
Conditions: antagonist 30 nM; for GH response (% of control) 0 min: 1 nM hGH-RH(1-29)NH2 at 0 min; for GH response (% of control) 30 min: 1 nM hGH-RH(1-29)NH2 at 30 min; for GH response (% of control) 60 min: 1 nM hGH-RH(1-29)NH2 at 60 min; for GH response (% of control) 90 min: 1 nM hGH-RH(1-29)NH2 at 90 min; for GH response (% of control) 120 min: 1 nM hGH-RH(1-29)NH2 at 120 min
Procedure: The analogs were tested in vitro in a test described earlier (S. Vigh and A. V Schally, Peptides 5:241-[…], 1984) with modification (Z. Rekasi and A. V. Schally, P.N.A.S. 90:2146-2149, 1993).
Briefly, the cells are preincubated with peptides for 9 minutes (3 mL) at various concentrations. Immediately after the incubation, 1 nM hGH-RH(1-29)NH2 is administered for 3 minutes (1 mL) 10 minute response). To check the duration of the antagonistic effect of the analogue, 1 nM hGH-RH(1-29)NH2 is applied 30, 60, 90, and 120 minutes later for 3 minutes [30, 60, 90, 120 min responses]. Net integral values of the GH responses are evaluated. GH responses are compared to and expressed as percent of the original GH response induced by 1 nM GH-RH(1-29)NH2 The effect of the new antagonists are compared to that of [Ac-Tyr^1, D-Arg^2]hGH-RH(1-29)NH2, the “Standard antagonist”.
Rat GH levels in aliquots of undiluted and diluted superfusion samples were measured by double-antibody radioimmunoassay using materials supplied by the National Hormone and Pituitary Program, Baltimore, Md. The results of RIA were analyzed with a computer program developed in our institute (V. Csernus and A. V. Schally, in Neuroendocrine Research Methods, Harwood Academic (Greenstein, B. D. ed., London, pp. 71-109, 1991), hereby incorporated by reference.

Substance	GH response (% of control) 0 min	GH response (% of control) 30 min	GH response (% of control) 60 min	GH response (% of control) 90 min	GH response (% of control) 120 min
[Hca-Tyr^1, D-Arg^2, Phe(pCl)^6, Har^9, Tyr(Me)^10, Abu^15, Nle^27, D-Arg^28, Har^29, Har^30]hGH-RH(1-30)NHEt [Peptide 56]	76 % of control	83 % of control	92 % of control	80 % of control	68 % of control
[PhAc-Tyr^1, D-Arg^2, Phe(pCl)^6, Cit^8, Arg^9, Abu^15, Nle^27, Har^28, D-Arg^29]hGH-RH(1-29)NH2 [Peptide 23]	55 % of control	40 % of control	41 % of control	47 % of control	41 % of control
[PhAc-Arg^0, D-Arg^2, Phe(pCl)^6, Arg^9, Abu^15, Nle^27, D-Arg^28, Har^29]hGH-RH(1-29)NH2 [Peptide 18]	21 % of control	71 % of control	61 % of control	75 % of control	63 % of control
[Hca-Tyr^1, D-Arg^2, Phe(pCl)^6, Har^9, Tyr(Me)^10, Abu^15, Nle^27, D-Arg^28, Agm^29]hGH-RH(1-29) [Peptide 51]	64 % of control and 52 % of control and 87 % of control	36 % of control and 43 % of control and 35 % of control	31 % of control and 57 % of control and 46 % of control	56 % of control and 51 % of control	58 % of control and 61 % of control
[CH3(CH2)10CO-Tyr^1, D-Arg^2, Phe(pCl)^6, Arg^9, Abu^15, Nle^27, D-Arg^28, Har^29]hGH-RH(1-29)NH2 [Peptide 8]	37 % of control	31 % of control	48 % of control	44 % of control	40 % of control
[HOOC(CH2)14CO-Tyr^1, D-Arg^2, Phe(pCl)^6, Arg^9, Abu^15, Nle^27, D-Arg^28, Har^29]hGH-RH(1-29)NH2 [Peptide 13]	87 % of control	77 % of control	76 % of control	71 % of control	73 % of control
[PhAc-Tyr^1, D-Arg^2, Phe(pCl)^6, Har^9, Tyr(Me)^10, Orn^12, Abu^15, Nle^27, D-Arg^28, Har^29]hGH-RH(1-29)NHEt [Peptide 50]	57 % of control	65 % of control	69 % of control	74 % of control	67 % of control
[CH3(CH2)14CO-Phe^0, D-Arg^2, Phe(pCl)^6, Arg^9, Abu^15, Nle^27, D-Arg^28, Har^29]hGH-RH(1-29)NH2 [Peptide 16]	40 % of control	62 % of control	78 % of control	73 % of control	61 % of control
[PhAc-Tyr^1, D-Arg^2, Phe(pCl)^5, Har^9, Tyr(Me)^10, Cit^11, Abu^15, Nle^27, D-Arg^28, Har^29]hGH-RH(1-29)NH2 [Peptide 65]	67 % of control	80 % of control	89 % of control	97 % of control	79 % of control
